Results reported in US4514408A, “N-substituted nicotinamide 1-oxide as histamine H2 receptor blockers” (Sanofi, priority 1982, dated 1985).

Legend:
[1] = target: T1, gastric histamine H2 receptors (Rattus norvegicus, UniProt P25102); assay: antisecretory activity: antagonism of gastric hypersecretion induced by histamine in the atropinised rat (Ghosh and Schild modified according to Black); type: in vivo; conditions: for ED50: intravenous, single administration, histamine i.v. infusion 15 mcmol/kg/hour, atropinised rat, read-out: ID50 (dose which inhibits by 50% the gastric hypersecretion induced by histamine)
T1 construct: the gastric secretion is measured by perfusion of a physiological solution at a constant speed in the stomach of the animal; from tissue; host or cells: stomach of the living atropinised rat (in vivo, endogenous receptor)
Description: According to this test, a gastric acid hypersecretion is induced by intravenous infusion of a sub-maximal dose of histamine equivalent to 15 mcmol/kg/hour and the gastric secretion is measured by perfusion of a physiological solution at a constant speed in the stomach of the animal.
Cimetidine and ranitidine, which represent standard compounds, as well as:
the compound of formula [drawing 5] as oxalate, and […]

histamine H2 receptors = conditions: i.v.; cited from earlier work
[2] = from ID50, i.v., cimetidine = 1

T1 sequence (P25102 whole entry, the tested form may be a part): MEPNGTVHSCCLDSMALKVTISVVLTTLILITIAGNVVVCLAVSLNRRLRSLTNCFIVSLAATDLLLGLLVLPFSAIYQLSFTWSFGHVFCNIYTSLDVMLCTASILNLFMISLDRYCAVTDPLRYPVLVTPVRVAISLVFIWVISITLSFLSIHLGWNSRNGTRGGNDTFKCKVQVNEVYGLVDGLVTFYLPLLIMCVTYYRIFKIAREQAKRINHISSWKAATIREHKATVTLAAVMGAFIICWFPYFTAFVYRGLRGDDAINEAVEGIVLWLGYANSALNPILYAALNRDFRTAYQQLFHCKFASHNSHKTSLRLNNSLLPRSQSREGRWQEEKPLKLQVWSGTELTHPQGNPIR

Row | Relative potency (cimetidine = 1) [1, 2] | ED50 [1] | Compound | Relative potency (cimetidine = 1) ([1]; rat, in vivo, iv) | ED50 (histamine H2 receptors)
1 | 2.43 | 0.39 µmol/kg | O=C(NCCCOc1cccc(CN2CCCC2)c1)c1ccc[n+]([O-])c1 [CM 57891, N-[3-(3-pyrrolidinomethylphenoxy)propyl]-3-pyridinecarboxamide 1-oxide] |  | 
2 | 1.19 | 0.8 µmol/kg | CCCCN(CCCC)Cc1cccc(OCCCNC(=O)c2ccc[n+]([O-])c2)c1 [SR 58062, N-[3-(3-di-n-butylaminomethylphenoxy)propyl]-3-pyridinecarboxamide 1-oxide] |  | 
3 | 1.34 | 0.71 µmol/kg | O=C(NCCCOc1cccc(CN2CCC(O)CC2)c1)c1ccc[n+]([O-])c1 [SR 58067, N-[3-[3-(4-hydroxypiperidinomethyl)phenoxy]propyl]-3-pyridinecarboxamide 1-oxide] |  | 
4 | 6.78 | 0.14 µmol/kg | CC1CCCN(Cc2cccc(OCCCNC(=O)c3ccc[n+]([O-])c3)c2)C1 (centres unmarked) [SR 58042, N-[3-[3-(3-methylpiperidinomethyl)phenoxy]propyl]-3-pyridinecarboxamide1-oxide] |  | 

Continued, compound first:

Row | Compound | Relative potency (cimetidine = 1) [1, 2] | ED50 [1] | Relative potency (cimetidine = 1) ([1]; rat, in vivo, iv) | ED50 (histamine H2 receptors)
5 | CC1CCN(Cc2cccc(OCCCNC(=O)c3ccc[n+]([O-])c3)c2)CC1 [SR 58037, N-[3-[3-(4-methylpiperidinomethyl)phenoxy]propyl]-3-pyridinecarboxamide 1-oxide] | 7.31 | 0.13 µmol/kg |  | 
6 | O=C(NCCCOc1cc(CN2CCCCC2)ccn1)c1ccc[n+]([O-])c1 [SR 58065, N-[3-(4-piperidinomethylpyrid-2-yloxy)propyl]3-pyridinecarboxamide 1-oxide] | 1.48 | 0.64 µmol/kg |  | 
7 | O=C(NCCCOc1cccc(CN2CCCCCC2)c1)c1ccc[n+]([O-])c1 [SR 58052, N-[3-(3-hexamethyleneiminomethylphenoxy)propyl]-3-pyridinecarboxamide 1-oxide] | 3.80 | 0.25 µmol/kg |  | 
8 | O=C(NCCCOc1cccc(CN2CCCCC2)c1)c1ccc[n+]([O-])c1 [SR 58017A, N-[3-(3-piperidinomethylphenoxy)propyl]-3-pyridinecarboxamide 1-oxide sesquioxalate] | 8.64 | 0.11 µmol/kg |  | 
9 | CNC(=C[N+](=O)[O-])NCCSCc1ccc(CN(C)C)o1 [Ranitidine, N-[2-[[5-[(dimethylamino)methyl]furfuryl]thio]ethyl]-N'-methyl-2-nitro-1,1-ethenediamine, reference compound] |  |  | 3.80 | 
10 | O=CNCCCOc1cccc(CN2CCCC2)c1 [Compound IV, reference compound] | 0.47 | 2.01 µmol/kg |  | 0.84 mg/kg
11 | O=C(NCCCOc1cccc(CN2CCCC2)c1)c1cccnc1 [Compound V, reference compound] | 0.43 | 2.22 µmol/kg |  | 1.25 mg/kg
